Measurements reported in patent US20250352494A1, “TRANSDERMAL DELIVERY DEVICE FOR PEPTIDE DELIVERY AND METHODS OF USE” (PassPort Technologies, Inc., priority 2022, published 2025).
Ends that are not written are not given here.

Assays:
[1] = in vivo; details: for bioavailability: 2 mg; for PK Profile: Table 40
Protocol: (§1) Animal Studies in Rats. […] In vivo PK studies were performed in CD rats (Charles River Laboratories) according to IACUC-approved Animal Protocols. Each dosing formulation was prepared prior to the experiments. The patch was manufactured according to dry patch manufacturing procedure. The animals for transdermal applications were shaved 1 day before the dosing date. The transdermal microporation was applied using the Applicator and Porator. Then, the patch was placed to cover the porated area for 1 day or a designated duration. After the last blood sampling, the patch was collected, and the application site was wiped by paper or cotton to recover the remaining drug on the skin. The blood samples were collected from the tail vein and transferred into K2-EDTA tube at the designated sampling time. The samples were centrifuged at 4° C., and then plasma samples were obtained. All samples were stored at −80° C. freezer until bioassay.
The plasma samples were stayed at room temperature for 30 minutes. The plasma (50 μL) was transferred into a 2 mL Eppendorf tube (Protein LoBind), then add 50 μL of Acetonitrile/DMSO (4:1, v/v), and vortex the tube for a couple of seconds. The samples were centrifuged for 15 minutes at 3700 rpm, 4° C. The 150 μL of mobile phase A (0.1% formic acid in water) were put into a new tube, then 50 μL of the supernatant were transferred into the tube and the samples were vortexed for 5 minutes. The supernatant was pulled out and the solution was filtered through a 0.20 μm PTFE membrane into an autosampler vial (LCMSMS).

[2] = p3-Alcβ9-19 in mouse plasma (sELISA) after transdermal microporation patch or subcutaneous injection; format: in vivo, wild-type mice; details: mice plasma
Description: (§2) Animal Studies in Mice. […] The hair was removed prior to the experiments. […] Exp. 21 (2008).
sELISA method for p3-Alcβ9-19 Analysis.

[3] = in vivo
Description: as §2
IgG was purified with antigen-coupled resin and conjugated to biotin. Horseradish peroxidase-conjugated streptavidine was from Amersham/GE Healthcare (Cat #RPN1051, Little Chalfont, UK), and the tetramethylbenzidine (TMB) microwell peroxidase substrate system was from SeraCare Life Sciences Inc. (Cat #5120-0075, Milford, MA, USA). The mice were anesthetized by using 1% isoflurane, and CSF was collected from the cisterna magna in mice as described above, and then mice were sacrificed.
Dis. (2014) 39, 861-870, p3-Alcβ37- and p3-Alcβ40-specific sELISA systems, described in Hata et al “Decrease in p3-Alcβ37 and p3-Alcβ40, products of Alcadeinβ generated by γ-secretase cleavages, in aged monkeys and patients with Alzheimer's disease” Alzheimers Dement TRCI (2019) 5, 740-750.
The next day, the non-binding antibody was removed with wash buffer (0.05% Tween-20 in PBS). The plasma and CSF were diluted 200-fold and 20-fold with EIA buffer (1% BSA, 0.05% Tween-20), respectively. The sample solution was added to 96 well plates and stayed overnight at 4° C. The next day, after washing with wash buffer, purified biotinylated IgG dissolved in PBS was added to […] in each well, and the mixture was kept overnight at 4° C. The next day, the unreacted antibody was washed with wash buffer, streptavidin-HRP (1/5000 in PBS) was added, and the reaction was carried out at 4° C. for 6 to 8 hours. After washing with Wash buffer, TMB color-developing substrate was added, and the mixture was reacted at room temperature for 30 minutes under light-protection. The color development was stopped by adding 1 N H2SO4, and the samples were measured by a plate reader at 450 nm.

[4] = rats; reducing sugar formulation (Table 22); 24 hours after application; without microporation
Protocol: as §1, with “The transdermal microporation was applied using the Applicator and Porator.” left out

[5] = mouse, sc, 30 ug, subcutaneous injection 30 μg
[6] = mouse, cerebrospinal fluid, sc, 30 ug

For HRGHQPPPEMA [p3-Alcβ9-19], the bioavailability ([1]; CD, rat, plasma, iv) was 100%, the bioavailability ([1]; CD, rat, plasma, oral) was 0% and the bioavailability ([1]; CD, rat, plasma, other: nasal) was 0%. For the same sequence, the bioavailability ([1]; CD, rat, plasma, other: passive transdermal) was 0%, the Tmax ([1]; CD, rat, plasma, other: transdermal microporation) was roughly 60 min and the bioavailability ([1]; CD, rat, plasma, subcutaneous) was 120 to 275%. For the same sequence, the “aBA (absolute bioavailability) vs IV (2 mg/body)” value ([1]; Table 33, optimized formulations for immediate delivery, rats, 400 density, 4 mJ/filament) was “about 2000%”, the “PK Profile” value ([1]; Intravenous injection) was “Bolus absorption” and the “PK Profile” value ([1]; Nasal) was “No absorption”. For the same sequence, the “PK Profile” value ([1]; Oral) was “No absorption”, the “PK Profile” value ([1]; Passive Transdermal) was “No absorption” and the “PK Profile” value ([1]; Subcutaneous injection) was “Bolus absorption”. The Absorption ([1]; rats, 5 mg/head, oral, nasal, or passive transdermal routes) was “No absorption”, the “Time by which blood concentrations disappeared” value ([1]; rats, SC injection) was no more than 1 h and the “Relationship between p3-Alcβ9-19 dose and AUC, FIG. 16” value ([1]; rats, immediate delivery, up to 50 mg of p3-Alcβ9-19 (tested dose)) was “liner dose-dependency”. For the same sequence, the PK profiles ([1]; rats, intravenous (IV) and subcutaneous (SC) injections) was “rapid absorption and quick elimination”, the “AUC and Cmax versus p3-Alcβ9-19 dose, FIG. 19A/19B” value ([1]; rats, optimized patch) was “increased p3-Alcβ9-19 dose-dependently” and the “Relationship between p3-Alcβ9-19 dose and AUC, FIG. 17” value ([1]; rats, sustained delivery, up to 25 mg of p3-Alcβ9-19 (tested dose)) was “liner dose-dependency”. For the same sequence, the “BA (relative bioavailability) vs SC (30 μg/body)” value ([2]; subcutaneous injection 30 μg (reference)) was 100%, the Cmax [2, 5] was 25.5 ± 12.5 ng/mL and the Tmax [2, 5] was 18.8 min. For the same sequence, the AUC(0-t) ([2]; mouse, sc, 30 ug, subcutaneous injection 30 μg, read-out: AUC0-360 (converted)) was 9.84 ng·h/mL, the “BA (relative bioavailability) vs SC (30 μg/body)” value ([3]; mice CSF, subcutaneous injection 30 μg (reference)) was 100% and the AUC(0-t) [3, 6] was 5.01 ng·h/mL. For the same sequence, the Cmax [3, 6] was 14.9 ± 10.7 ng/mL, the Tmax [3, 6] was 15 min and the “p3-Alcβ9-19 recovered (drug residual)” value [4] was “about 100%”.
